Values quoted from earlier work, collected in US9474689B2, “Delamination resistant pharmaceutical glass containers containing active pharmaceutical ingredients” (Corning Incorporated, priority 2011, dated 2016).

Tests used:
[1] = tested on: P. aeruginosa; conditions: against P. aeruginosa
[2] = tested on: Enterobacteriaceae; conditions: in vitro
[3] = tested on: soluble and transmembrane forms of TNFα
[4] = target: T1, TNFβ (lymphotoxin-α) (Homo sapiens, UniProt P01374)
T1 sequence (P01374 35-205): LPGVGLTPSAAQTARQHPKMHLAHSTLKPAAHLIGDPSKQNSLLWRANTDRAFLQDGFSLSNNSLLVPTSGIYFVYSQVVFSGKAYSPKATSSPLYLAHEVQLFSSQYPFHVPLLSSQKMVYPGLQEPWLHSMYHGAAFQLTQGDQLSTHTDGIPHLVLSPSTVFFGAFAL

soluble and transmembrane forms of TNFα, sequence (P01375 77-233 limits assumed): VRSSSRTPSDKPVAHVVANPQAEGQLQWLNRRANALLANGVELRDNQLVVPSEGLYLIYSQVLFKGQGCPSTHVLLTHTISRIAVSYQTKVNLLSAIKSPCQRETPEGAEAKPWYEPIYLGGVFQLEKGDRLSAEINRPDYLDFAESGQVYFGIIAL

binding affinity to TNFα [3] | Compound | post-antibiotic effects in vitro [1] | protein binding | activity against Enterobacteriaceae [2] | neutralization of TNFβ [4]
– | C[C@@H](O)[C@H]1C(=O)N2C(C(=O)O)=C(S[C@@H]3CN[C@H](CNS(N)(=O)=O)C3)[C@H](C)[C@H]12 [Doripenem, doripenem] | about two hours | low protein binding | excellent activity | –
high affinity | Infliximab: chimeric IgG1κ monoclonal antibody specific for human tumor necrosis factor-alpha | – | – | – | does not neutralize
